# Assay results as given in publication PMC9963398, “Discovery of New Quinolone-Based Diarylamides as Potent B-RAF^V600E/C-RAF Kinase Inhibitors Endowed with Promising In Vitro Anticancer Activity” (International Journal of Molecular Sciences, 2023).
# How the values were obtained:
# SN12C = test: NCI-60 five-dose SRB assay; assay type: cell-based; conditions: Homo sapiens, Renal cancer, five-dose test
# Method: (§1) The anticancer screening of target compounds over a full panel of 60 human cancer cell lines was carried out using Sulforhodamine B (SRB) assay at the National Cancer Institute (NCI), Bethesda, Maryland, USA, employing the standard protocol.
# M14 = test: NCI-60 five-dose SRB assay; assay type: cell-based; conditions: Homo sapiens; M14, Melanoma, five-dose test
# Method: as §1
# NCI-H322M = test: NCI-60 five-dose SRB assay; assay type: cell-based; conditions: Homo sapiens, NSCL cancer, five-dose test
# Method: as §1
# OVCAR-8 = test: NCI-60 five-dose SRB assay; assay type: cell-based; conditions: Homo sapiens; OVCAR-8, Ovarian cancer, five-dose test
# Method: as §1
# SK-MEL-2 = test: NCI-60 five-dose SRB assay; assay type: cell-based; conditions: Homo sapiens; SK-MEL-2, Melanoma, five-dose test
# Method: as §1
# SF-539 = test: NCI-60 five-dose SRB assay; assay type: cell-based; conditions: Homo sapiens; SF-539, CNS cancer, five-dose test
# Method: as §1
# U251 = test: NCI-60 five-dose SRB assay; assay type: cell-based; conditions: Homo sapiens, U-251; U251, CNS cancer, five-dose test
# Method: as §1
# MALME-3M = test: NCI-60 five-dose SRB assay; assay type: cell-based; conditions: Homo sapiens, Melanoma, five-dose test
# Method: as §1
# EKVX = test: NCI-60 five-dose SRB assay; assay type: cell-based; conditions: Homo sapiens, NSCL cancer, five-dose test
# Method: as §1
# HCC-2998 = test: NCI-60 five-dose SRB assay; assay type: cell-based; conditions: Homo sapiens; HCC-2998, Colon cancer, five-dose test
# Method: as §1
# HT29 = test: NCI-60 five-dose SRB assay; assay type: cell-based; conditions: Homo sapiens, HT-29; HT29, Colon cancer, five-dose test
# Method: as §1
# HL-60(TB) = test: NCI-60 five-dose SRB assay; assay type: cell-based; conditions: Homo sapiens, Leukemia, five-dose test
# Method: as §1
# K-562 = test: NCI-60 five-dose SRB assay; assay type: cell-based; conditions: Homo sapiens, K562; K-562, Leukemia, five-dose test
# Method: as §1
# NCI-H522 = test: NCI-60 five-dose SRB assay; assay type: cell-based; conditions: Homo sapiens; NCI-H522, NSCL cancer, five-dose test
# Method: as §1
# TK-10 = test: NCI-60 five-dose SRB assay; assay type: cell-based; conditions: Homo sapiens; TK-10, Renal cancer, five-dose test
# Method: as §1
# NCI-H226 = test: NCI-60 five-dose SRB assay; assay type: cell-based; conditions: Homo sapiens; NCI-H226, NSCL cancer, five-dose test
# Method: as §1
# NCI-H23 = test: NCI-60 five-dose SRB assay; assay type: cell-based; conditions: Homo sapiens; NCI-H23, NSCL cancer, five-dose test
# Method: as §1
# SK-OV-3 = test: NCI-60 five-dose SRB assay; assay type: cell-based; conditions: Homo sapiens; SK-OV-3, Ovarian cancer, five-dose test
# Method: as §1
# OVCAR-5 = test: NCI-60 five-dose SRB assay; assay type: cell-based; conditions: Homo sapiens; OVCAR-5, Ovarian cancer, five-dose test
# Method: as §1
# BT-549 = test: NCI-60 five-dose SRB assay; assay type: cell-based; conditions: Homo sapiens; BT-549, Breast cancer, five-dose test
# Method: as §1
# OVCAR-3 = test: NCI-60 five-dose SRB assay; assay type: cell-based; conditions: Homo sapiens; OVCAR-3, Ovarian cancer, five-dose test
# Method: as §1
# OVCAR-4 = test: NCI-60 five-dose SRB assay; assay type: cell-based; conditions: Homo sapiens; OVCAR-4, Ovarian cancer, five-dose test
# Method: as §1
# HOP-62 = test: NCI-60 five-dose SRB assay; assay type: cell-based; conditions: Homo sapiens; HOP-62, NSCL cancer, five-dose test
# Method: as §1
# UO-31 = test: NCI-60 five-dose SRB assay; assay type: cell-based; conditions: Homo sapiens; UO-31, Renal cancer, five-dose test
# Method: as §1
# SW-620 = test: NCI-60 five-dose SRB assay; assay type: cell-based; conditions: Homo sapiens; SW-620, Colon cancer, five-dose test
# Method: as §1
# HCT-116 = test: NCI-60 five-dose SRB assay; assay type: cell-based; conditions: Homo sapiens; HCT-116, Colon cancer, five-dose test
# Method: as §1
# ACHN = test: NCI-60 five-dose SRB assay; assay type: cell-based; conditions: Homo sapiens, Renal cancer, five-dose test
# Method: as §1
# SNB-19 = test: NCI-60 five-dose SRB assay; assay type: cell-based; conditions: Homo sapiens; SNB-19, CNS cancer, five-dose test
# Method: as §1
# SR = test: NCI-60 five-dose SRB assay; assay type: cell-based; conditions: Homo sapiens, Leukemia, five-dose test
# Method: as §1
# T-47D = test: NCI-60 five-dose SRB assay; assay type: cell-based; conditions: Homo sapiens, T47D, Breast cancer, five-dose test
# Method: as §1
# CAKI-1 = test: NCI-60 five-dose SRB assay; assay type: cell-based; conditions: Homo sapiens; CAKI-1, Renal cancer, five-dose test
# Method: as §1
# DU-145 = test: NCI-60 five-dose SRB assay; assay type: cell-based; conditions: Homo sapiens; DU-145, Prostate cancer, five-dose test
# Method: as §1
# SK-MEL-5 = test: NCI-60 five-dose SRB assay; assay type: cell-based; conditions: Homo sapiens; SK-MEL-5, Melanoma, five-dose test
# Method: as §1
# LOX IMVI = test: NCI-60 five-dose SRB assay; assay type: cell-based; conditions: Homo sapiens, Melanoma, five-dose test
# Method: as §1
# 786-0 = test: NCI-60 five-dose SRB assay; assay type: cell-based; conditions: Homo sapiens; 786-0, Renal cancer, five-dose test
# Method: as §1
# HCT-15 = test: NCI-60 five-dose SRB assay; assay type: cell-based; conditions: Homo sapiens; HCT-15, Colon cancer, five-dose test
# Method: as §1
# MDA-MB-435 = test: NCI-60 five-dose SRB assay; assay type: cell-based; conditions: Homo sapiens; MDA-MB-435, Melanoma, five-dose test
# Method: as §1
# RPMI-8226 = test: NCI-60 five-dose SRB assay; assay type: cell-based; conditions: Homo sapiens; RPMI-8226, Leukemia, five-dose test
# Method: as §1
# RXF 393 = test: NCI-60 five-dose SRB assay; assay type: cell-based; conditions: Homo sapiens; RXF 393, Renal cancer, five-dose test
# Method: as §1
# CCRF-CEM = test: NCI-60 five-dose SRB assay; assay type: cell-based; conditions: Homo sapiens, Leukemia, five-dose test
# Method: as §1
# A498 = test: NCI-60 five-dose SRB assay; assay type: cell-based; conditions: Homo sapiens; A498, Renal cancer, five-dose test
# Method: as §1
# B-RAF^V600E = molecular target: T1, B-RAF^V600E (Homo sapiens, UniProt P15056, V600E); test: HotSpot kinase assay (RBC), B-RAF^V600E; assay type: biochemical; conditions: 10 µM ATP, 10-dose singlicate IC50 mode
# T1 construct: purchased Reaction Biology Corporation (RBC), Kinase HotSpot service
# T1 sequence (P15056 whole entry V600E): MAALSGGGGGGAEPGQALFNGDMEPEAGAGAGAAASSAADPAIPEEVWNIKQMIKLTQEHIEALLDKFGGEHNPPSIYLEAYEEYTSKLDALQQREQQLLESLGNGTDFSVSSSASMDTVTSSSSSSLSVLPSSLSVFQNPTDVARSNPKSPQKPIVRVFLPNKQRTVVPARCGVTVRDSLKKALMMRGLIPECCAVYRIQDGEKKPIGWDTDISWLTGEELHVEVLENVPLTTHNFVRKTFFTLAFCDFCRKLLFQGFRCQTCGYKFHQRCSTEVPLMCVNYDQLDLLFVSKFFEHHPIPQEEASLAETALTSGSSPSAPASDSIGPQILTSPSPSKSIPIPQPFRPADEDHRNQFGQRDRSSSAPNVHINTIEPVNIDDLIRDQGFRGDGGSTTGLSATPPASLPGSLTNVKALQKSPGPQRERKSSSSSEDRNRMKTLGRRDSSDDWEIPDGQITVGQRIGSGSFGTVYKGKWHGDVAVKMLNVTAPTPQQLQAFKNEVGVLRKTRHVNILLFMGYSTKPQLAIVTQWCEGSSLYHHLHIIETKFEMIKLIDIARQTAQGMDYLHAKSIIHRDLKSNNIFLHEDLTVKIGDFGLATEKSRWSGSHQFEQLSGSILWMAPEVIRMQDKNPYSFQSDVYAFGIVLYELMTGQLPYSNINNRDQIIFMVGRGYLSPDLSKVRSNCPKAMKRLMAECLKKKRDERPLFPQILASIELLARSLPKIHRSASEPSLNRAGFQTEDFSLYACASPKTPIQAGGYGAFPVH
smiles,measurement,setting,value
"COc1cccc2nc(Nc3cccc(NC(=O)c4ccc(CN5CCN(C)CC5)c(C(F)(F)F)c4)c3)ccc12 [Compound 14a, 4-((4-methylpiperazin-1-yl)methyl)-N-(3-((5-methoxyquinolin-2-yl)amino)phenyl)-3-(trifluoromethyl)benzamide]",GI50,SN12C,1710 nM
same,GI50,M14,1760 nM
same,GI50,NCI-H322M,2290 nM
same,GI50,OVCAR-8,3090 nM
same,GI50,SK-MEL-2,3520 nM
same,GI50,SF-539,1640 nM
same,GI50,U251,1920 nM
same,GI50,MALME-3M,1650 nM
same,GI50,EKVX,2100 nM
same,GI50,HCC-2998,1990 nM
same,GI50,HT29,1860 nM
same,GI50,HL-60(TB),1220 nM
same,GI50,K-562,2700 nM
same,GI50,NCI-H522,1790 nM
same,GI50,TK-10,2150 nM
same,GI50,NCI-H226,4630 nM
same,GI50,NCI-H23,1910 nM
same,GI50,SK-OV-3,9220 nM
same,GI50,OVCAR-5,1840 nM
same,GI50,BT-549,7010 nM
same,GI50,OVCAR-3,2150 nM
same,GI50,OVCAR-4,2210 nM
same,GI50,HOP-62,1560 nM
same,GI50,UO-31,1640 nM
same,GI50,SW-620,1730 nM
same,GI50,HCT-116,1820 nM
same,GI50,ACHN,2050 nM
same,GI50,SNB-19,1780 nM
same,GI50,SR,1850 nM
same,GI50,T-47D,2280 nM
same,GI50,CAKI-1,1810 nM
same,GI50,DU-145,1980 nM
same,GI50,SK-MEL-5,1620 nM
same,GI50,LOX IMVI,1740 nM
same,GI50,786-0,1760 nM
same,GI50,HCT-15,1780 nM
same,GI50,MDA-MB-435,1680 nM
same,GI50,RPMI-8226,2780 nM
same,GI50,RXF 393,1730 nM
same,GI50,CCRF-CEM,2100 nM
same,GI50,A498,2000 nM
same,IC50,B-RAF^V600E,498 ± 35.8 nM
"CCN1CCN(Cc2ccc(C(=O)Nc3cccc(Nc4ccc5c(OC)cccc5n4)c3)cc2C(F)(F)F)CC1 [Compound 14c, 4-((4-ethylpiperazin-1-yl)methyl)-N-(3-((5-methoxyquinolin-2-yl)amino)phenyl)-3-(trifluoromethyl)benzamide]",GI50,SN12C,3620 nM
same,GI50,M14,1470 nM
same,GI50,NCI-H322M,3500 nM
same,GI50,OVCAR-8,6780 nM
same,GI50,SK-MEL-2,10700 nM
same,GI50,SF-539,1370 nM
same,GI50,U251,1690 nM
same,GI50,MALME-3M,1440 nM
same,GI50,EKVX,4060 nM
same,GI50,HCC-2998,1590 nM
same,GI50,HT29,1760 nM
same,GI50,HL-60(TB),1570 nM
same,GI50,K-562,2110 nM
same,GI50,NCI-H522,1700 nM
same,GI50,TK-10,8670 nM
same,GI50,NCI-H226,5530 nM
same,GI50,NCI-H23,2370 nM
same,GI50,SK-OV-3,12600 nM
same,GI50,OVCAR-5,3280 nM
same,GI50,BT-549,5350 nM
same,GI50,OVCAR-3,1800 nM
same,GI50,OVCAR-4,2890 nM
same,GI50,HOP-62,3670 nM
same,GI50,UO-31,2330 nM
same,GI50,SW-620,1450 nM
same,GI50,HCT-116,1450 nM
same,GI50,ACHN,1850 nM
same,GI50,SNB-19,1650 nM
same,GI50,SR,1870 nM
same,GI50,T-47D,2110 nM
same,GI50,CAKI-1,1460 nM
same,GI50,DU-145,2550 nM
same,GI50,SK-MEL-5,1450 nM
same,GI50,LOX IMVI,1450 nM
same,GI50,786-0,1410 nM
same,GI50,HCT-15,1580 nM
same,GI50,MDA-MB-435,1360 nM
same,GI50,RPMI-8226,2240 nM
same,GI50,RXF 393,1630 nM
same,GI50,CCRF-CEM,1970 nM
same,GI50,A498,11800 nM
same,IC50,B-RAF^V600E,619 ± 2.7 nM
